Test results as given in US6355799B1, “Substituted benzene compounds, process for their preparation, and herbicidal and defoliant compositions containing them” (ISK Americas Incorporated, priority 1997, dated 2002).

Key:
Type in all cases: in vivo
[1] = system: field corn (Zea mays L., var. Dekalb 535, CORN); assay: Post-emerge test, crop safety; conditions: post-emerge, 14 days after application, rating scale 0-100
Procedure, shortened: (§1)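 Compounds in acetone were track-sprayed at 187 l/ha, 15–1000 g ai/ha, onto sandy loam pots. Pre-emerge seeds were sown one day before spraying, with surface watering afterwards. Post-emerge plants were at the 2–3 leaf stage and sprayed with 0.25% v/v non-ionic surfactant. Injury was rated 0–100 at 14 days.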

[2] = system: upland rice (Oryza sp., var. Tebonnet, RICE); assay: Post-emerge test, crop safety; conditions: post-emerge, 14 days after application, rating scale 0-100
Procedure, shortened: as §1

[3] = system: large crabgrass (Digitaria sanguinalis, DIGSA); assay: Post-emerge test, greenhouse herbicide activity screening; conditions: post-emerge, 14 days after application, rating scale 0-100
Procedure, shortened: (§2)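 Rating: 0–100 visual injury, 14 DAA. Application: acetone, 187 l/ha, 15–1000 g ai/ha, flat-fan track sprayer with nozzle 40–45 cm above soil or canopy. Post-emerge runs used 0.25% v/v surfactant on 2–3 leaf plants.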

[4] = system: green foxtail (Setaria viridis, SETVI); assay: as above; conditions: post-emerge, 14 days after application, rating scale 0-100
Procedure, shortened: as §2

[5] = system: barnyardgrass (Echinochloa crus-galli, ECHCG); assay: as above; conditions: post-emerge, 14 days after application, rating scale 0-100
Procedure, shortened: as §2

[6] = system: ivyleaf morningglory (Ipomoea hederacea, IPOHE); assay: as above; conditions: post-emerge, 14 days after application, rating scale 0-100
Procedure, shortened: as §2

[7] = system: johnsongrass (Sorghum halepense, SORHA); assay: as above; conditions: post-emerge, 14 days after application, rating scale 0-100
Procedure, shortened: as §2

[8] = system: lambsquarters (Chenopodium album, CHEAL); assay: as above; conditions: post-emerge, 14 days after application, rating scale 0-100
Procedure, shortened: as §2

[9] = system: redroot pigweed (Amaranthus retroflexus, AMARE); assay: as above; conditions: post-emerge, 14 days after application
Procedure, shortened: as §2

[10] = system: velvetleaf (Abutilon theophrasti, ABUTH); assay: as above; conditions: post-emerge, 14 days after application, rating scale 0-100
Procedure, shortened: as §2

[11] = system: sicklepod (Cassia obtusifolia, CASOB); assay: as above; conditions: post-emerge, 14 days after application, rating scale 0-100
Procedure, shortened: as §2

[12] = system: large crabgrass (Digitaria sanguinalis, DIGSA); assay: Pre-emerge test, greenhouse herbicide activity screening; conditions: pre-emerge, 14 days after application, rating scale 0-100
Procedure, shortened: as §1

[13] = system: green foxtail (Setaria viridis, SETVI); assay: as above; conditions: pre-emerge, 14 days after application, rating scale 0-100
Procedure, shortened: as §1

[14] = system: barnyardgrass (Echinochloa crus-galli, ECHCG); assay: as above; conditions: pre-emerge, 14 days after application, rating scale 0-100
Procedure, shortened: as §1

[15] = system: ivyleaf morningglory (Ipomoea hederacea, IPOHE); assay: as above; conditions: pre-emerge, 14 days after application, rating scale 0-100
Procedure, shortened: as §1

[16] = system: johnsongrass (Sorghum halepense, SORHA); assay: as above; conditions: pre-emerge, 14 days after application, rating scale 0-100
Procedure, shortened: as §1

[17] = system: lambsquarters (Chenopodium album, CHEAL); assay: as above; conditions: pre-emerge, 14 days after application, rating scale 0-100
Procedure, shortened: as §1

[18] = system: velvetleaf (Abutilon theophrasti, ABUTH); assay: as above; conditions: pre-emerge, 14 days after application, rating scale 0-100
Procedure, shortened: as §1

[19] = system: sicklepod (Cassia obtusifolia, CASOB); assay: as above; conditions: pre-emerge, 14 days after application, rating scale 0-100
Procedure, shortened: as §1

[20] = system: field corn (Zea mays L., var. Dekalb 535, CORN); assay: Pre-emerge test, crop safety; conditions: pre-emerge, 14 days after application, rating scale 0-100
Procedure, shortened: (§3)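 Fourteen days after spraying, crop and weed injury was graded visually from 0, no effect, to 100, every plant dead. Test substances were dissolved in acetone and applied at 15–1000 g ai/ha with a flat-fan nozzle. Application was either pre-emergence, one day after sowing, or post-emergence at the 2–3 leaf stage.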

[21] = system: upland rice (Oryza sp., var. Tebonnet, RICE); assay: Pre-emerge test, crop safety; conditions: pre-emerge, 14 days after application, rating scale 0-100
Procedure, shortened: as §3

[22] = system: redroot pigweed (Amaranthus retroflexus, AMARE); assay: Pre-emerge test, greenhouse herbicide activity screening; conditions: pre-emerge, 14 days after application, rating scale 0-100
Procedure, shortened: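 Herbicidal damage is scored 0 (none) to 100 (complete plant death) two weeks after a simulated field spray. Rates span 15–1000 g ai/ha, delivered in acetone at 187 l/ha. For post-emergence treatments, plants have 2–3 leaves and the spray carries 0.25% v/v non-ionic surfactant.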

SMILES: COc1c(Cl)cc(F)c(-n2c(=O)cc(C(F)(F)F)n(C)c2=O)c1SCCO [17-5]
- Post-emerge Herbicidal Activity CORN (crop damage rating) ([1]; 63 g ai/ha): 0
- Post-emerge Herbicidal Activity CORN (crop damage rating) ([1]; 250 g ai/ha): 10
- Post-emerge Herbicidal Activity RICE (crop damage rating) ([2]; 63 g ai/ha): 0
- Post-emerge Herbicidal Activity RICE (crop damage rating) ([2]; 250 g ai/ha): 0
- Post-emerge Herbicidal Activity DIGSA (phytotoxicity rating) ([3]; 63 g ai/ha): 0
- Post-emerge Herbicidal Activity DIGSA (phytotoxicity rating) ([3]; 250 g ai/ha): 0
- Post-emerge Herbicidal Activity SETVI (phytotoxicity rating) ([4]; 63 g ai/ha): 0
- Post-emerge Herbicidal Activity SETVI (phytotoxicity rating) ([4]; 250 g ai/ha): 0
- Post-emerge Herbicidal Activity ECHCG (phytotoxicity rating) ([5]; 63 g ai/ha): 0
- Post-emerge Herbicidal Activity ECHCG (phytotoxicity rating) ([5]; 250 g ai/ha): 0
- Post-emerge Herbicidal Activity IPOHE (phytotoxicity rating) ([6]; 63 g ai/ha): 30
- Post-emerge Herbicidal Activity IPOHE (phytotoxicity rating) ([6]; 250 g ai/ha): 70
- Post-emerge Herbicidal Activity SORHA (phytotoxicity rating) ([7]; 63 g ai/ha): 0
- Post-emerge Herbicidal Activity SORHA (phytotoxicity rating) ([7]; 250 g ai/ha): 0
- Post-emerge Herbicidal Activity CHEAL (phytotoxicity rating) ([8]; 63 g ai/ha): 40
- Post-emerge Herbicidal Activity CHEAL (phytotoxicity rating) ([8]; 250 g ai/ha): 80
- Post-emerge Herbicidal Activity AMARE (phytotoxicity rating) ([9]; 63 g ai/ha, rating scale 0-100 (0 no damage, 100 complete death)): 10
- Post-emerge Herbicidal Activity AMARE (phytotoxicity rating) ([9]; 250 g ai/ha, rating scale 0-100): 40
- Post-emerge Herbicidal Activity ABUTH (phytotoxicity rating) ([10]; 63 g ai/ha): 50
- Post-emerge Herbicidal Activity ABUTH (phytotoxicity rating) ([10]; 250 g ai/ha): 80
- Post-emerge Herbicidal Activity CASOB (phytotoxicity rating) ([11]; 63 g ai/ha): 10
- Post-emerge Herbicidal Activity CASOB (phytotoxicity rating) ([11]; 250 g ai/ha): 20
- phytotoxicity rating DIGSA ([12]; 63 g ai/ha): 0
- phytotoxicity rating DIGSA ([12]; 250 g ai/ha): 60
- phytotoxicity rating SETVI ([13]; 63 g ai/ha): 0
- phytotoxicity rating SETVI ([13]; 250 g ai/ha): 50
- phytotoxicity rating ECHCG ([14]; 63 g ai/ha): 0
- phytotoxicity rating ECHCG ([14]; 250 g ai/ha): 0
- phytotoxicity rating IPOHE ([15]; 63 g ai/ha): 30
- phytotoxicity rating IPOHE ([15]; 250 g ai/ha): 35
- phytotoxicity rating SORHA ([16]; 63 g ai/ha): 0
- phytotoxicity rating SORHA ([16]; 250 g ai/ha): 20
- phytotoxicity rating CHEAL ([17]; 63 g ai/ha): 90
- phytotoxicity rating CHEAL ([17]; 250 g ai/ha): 100
- phytotoxicity rating ABUTH ([18]; 63 g ai/ha): 60
- phytotoxicity rating ABUTH ([18]; 250 g ai/ha): 100
- phytotoxicity rating CASOB ([19]; 63 g ai/ha): 0
- phytotoxicity rating CASOB ([19]; 250 g ai/ha): 30
- phytotoxicity rating CORN ([20]; 63 g ai/ha): 0
- phytotoxicity rating CORN ([20]; 250 g ai/ha): 0
- phytotoxicity rating RICE ([21]; 63 g ai/ha): 0
- phytotoxicity rating RICE ([21]; 250 g ai/ha): 10
- phytotoxicity rating AMARE ([22]; 63 g ai/ha): 80
- phytotoxicity rating AMARE ([22]; 250 g ai/ha): 100
